Experimental data from patent US7638600B2 (priority 2004, dated 2009).
Values after ≈ are worked out from the molar mass of the structure shown.

Key:
spores = format: cell-based
RSVF1 = assay: microbe, parasite or virus in culture; format: cell-based, B. cereus; details: Bacillus cereus, read-out: MIC for fosfomycin
RSVF1/pDG148 = assay: microbe, parasite or virus in culture; format: cell-based, B. cereus; details: Bacillus cereus, read-out: MIC for fosfomycin
RSVF1/pDG148::gp41 = assay: microbe, parasite or virus in culture; format: cell-based, B. cereus

C[C@@H](N)C(=O)O [D-alanine]
germination frequency (spores): < 10%

C[C@H](N)C(=O)O [L-alanine]
spores converted to heat sensitive forms (spores): > 99%

C[C@@H]1O[C@@H]1P(=O)(O)O [fosfomycin]
MIC (RSVF1): 62.5 µg/mL (≈ 453 µM)
MIC (RSVF1/pDG148): 62.5 µg/mL (≈ 453 µM)
increase in resistance to the antibiotic fosfomycin (RSVF1/pDG148::gp41): 4 log
MIC (RSVF1/pDG148::gp41; Bacillus cereus, read-out: MIC for fosfomycin): 500 µg/mL (≈ 3620 µM)
